Test results: patent US9708295B2, “Substituted 2-aminopyridine protein kinase inhibitor” (CHIA TAI TIANQING PHARMACEUTICAL GROUP CO., LTD, priority 2013, dated 2017)

Key:
[1] = In vivo pharmacokinetics in SD rats; settings: Sprague-Dawley, rat, po, 5 mg/kg
[2] = target: G1269S mutated ALK kinase (Homo sapiens (Human), UniProt Q9UM73, G1269S); assay: biochemical
[3] = system: human non-small cell lung carcinoma NCI-H2228; assay: Therapeutic effect on human non-small cell lung carcinoma NCI-H2228 xenografts in nude mice; format: in vivo; settings: D0-13 once a day; for Average tumor volume (mm^3) D0: D0 baseline at grouping
[4] = target: L1196M mutated ALK kinase (Homo sapiens (Human), UniProt Q9UM73, L1196M); assay: biochemical
ALK kinase = ALK kinase (Homo sapiens (Human), UniProt Q9UM73); settings: read-out: IC50 (nM), ALK inhibition activity; HTRF, ATP at Km
CYP-3A4 = CYP-3A4 (Homo sapiens (Human), UniProt P08684); assay: Inhibition of CYP-3A4 (midazolam substrate); format: in vitro ADME; settings: for IC50: substrate midazolam, read-out: Inhibition to CYP-3A4, 3A4_Midazolam
in vivo = settings: Sprague-Dawley, rat, po, 5 mg/kg

CYP-3A4, sequence (P08684 whole entry): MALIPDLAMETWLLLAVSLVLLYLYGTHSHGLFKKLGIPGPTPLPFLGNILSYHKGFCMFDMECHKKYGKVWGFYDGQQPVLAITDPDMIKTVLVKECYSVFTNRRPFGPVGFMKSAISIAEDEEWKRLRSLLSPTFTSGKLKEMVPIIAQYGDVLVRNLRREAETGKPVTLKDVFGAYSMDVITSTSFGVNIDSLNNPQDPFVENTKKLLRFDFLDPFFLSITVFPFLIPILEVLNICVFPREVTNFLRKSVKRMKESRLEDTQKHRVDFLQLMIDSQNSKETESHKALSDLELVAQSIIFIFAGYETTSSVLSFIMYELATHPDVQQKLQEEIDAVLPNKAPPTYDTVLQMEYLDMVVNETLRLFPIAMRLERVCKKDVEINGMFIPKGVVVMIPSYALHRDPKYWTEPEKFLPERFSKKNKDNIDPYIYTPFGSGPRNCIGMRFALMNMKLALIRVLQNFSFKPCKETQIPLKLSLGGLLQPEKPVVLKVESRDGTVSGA
G1269S mutated ALK kinase, sequence (Q9UM73 19-1620 G1269S): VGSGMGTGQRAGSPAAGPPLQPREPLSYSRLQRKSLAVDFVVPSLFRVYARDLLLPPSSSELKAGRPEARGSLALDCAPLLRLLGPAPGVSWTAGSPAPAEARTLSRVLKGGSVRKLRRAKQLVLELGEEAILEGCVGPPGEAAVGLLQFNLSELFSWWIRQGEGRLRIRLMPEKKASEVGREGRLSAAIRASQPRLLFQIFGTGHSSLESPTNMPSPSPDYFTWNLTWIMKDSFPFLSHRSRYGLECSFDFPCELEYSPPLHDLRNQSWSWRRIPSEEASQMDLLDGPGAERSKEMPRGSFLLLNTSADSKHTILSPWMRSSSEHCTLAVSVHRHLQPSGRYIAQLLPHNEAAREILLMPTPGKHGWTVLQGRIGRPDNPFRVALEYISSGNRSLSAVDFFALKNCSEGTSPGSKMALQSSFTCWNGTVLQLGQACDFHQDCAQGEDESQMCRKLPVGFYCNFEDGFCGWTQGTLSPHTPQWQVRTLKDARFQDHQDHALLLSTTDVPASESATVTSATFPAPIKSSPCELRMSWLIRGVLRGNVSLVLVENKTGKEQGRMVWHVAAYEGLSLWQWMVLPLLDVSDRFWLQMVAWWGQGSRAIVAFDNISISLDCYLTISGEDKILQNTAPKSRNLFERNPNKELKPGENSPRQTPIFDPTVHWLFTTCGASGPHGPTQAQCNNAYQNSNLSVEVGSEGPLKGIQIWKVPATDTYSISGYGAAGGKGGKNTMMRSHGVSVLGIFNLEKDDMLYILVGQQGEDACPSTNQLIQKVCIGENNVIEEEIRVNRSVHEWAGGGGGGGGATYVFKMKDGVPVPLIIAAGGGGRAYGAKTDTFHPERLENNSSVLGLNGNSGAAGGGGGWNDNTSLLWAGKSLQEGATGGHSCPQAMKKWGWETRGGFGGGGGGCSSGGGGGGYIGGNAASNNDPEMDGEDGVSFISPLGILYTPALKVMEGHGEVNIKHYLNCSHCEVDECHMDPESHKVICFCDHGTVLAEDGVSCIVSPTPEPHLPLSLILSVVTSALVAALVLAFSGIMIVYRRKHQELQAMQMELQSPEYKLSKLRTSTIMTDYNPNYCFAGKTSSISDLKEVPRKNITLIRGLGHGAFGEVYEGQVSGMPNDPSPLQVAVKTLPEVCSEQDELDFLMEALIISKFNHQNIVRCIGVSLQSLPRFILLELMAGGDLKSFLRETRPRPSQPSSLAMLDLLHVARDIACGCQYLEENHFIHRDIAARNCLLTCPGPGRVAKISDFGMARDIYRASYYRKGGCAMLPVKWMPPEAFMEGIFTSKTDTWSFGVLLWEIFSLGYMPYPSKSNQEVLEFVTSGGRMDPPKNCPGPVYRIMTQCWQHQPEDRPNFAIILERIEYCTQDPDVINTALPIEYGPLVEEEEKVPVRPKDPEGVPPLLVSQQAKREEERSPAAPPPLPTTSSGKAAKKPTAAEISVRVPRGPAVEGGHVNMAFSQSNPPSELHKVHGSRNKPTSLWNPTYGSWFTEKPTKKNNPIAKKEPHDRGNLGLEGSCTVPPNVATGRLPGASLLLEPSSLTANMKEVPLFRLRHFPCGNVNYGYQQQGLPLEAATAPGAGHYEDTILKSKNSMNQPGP
L1196M mutated ALK kinase, sequence (Q9UM73 19-1620 L1196M): as the sequence (Q9UM73 19-1620 G1269S) above, with L1178M, S1251G counted along it
ALK kinase, sequence (Q9UM73 19-1620): as the sequence (Q9UM73 19-1620 G1269S) above, with S1251G counted along it

| SMILES | AUC(0-inf) [1] | Cmax [1] | Tmax [1] | half-life [1] | IC50 [2] | Average tumor volume (mm^3) D0 ([3]; 12.5 mg/kg PO) | % Inhibition rate D21 ([3]; 12.5 mg/kg PO, D21) | % T/C D21 ([3]; 12.5 mg/kg PO, D21) | Average tumor volume (mm^3) D21 ([3]; 12.5 mg/kg PO, D21) | Average tumor volume (mm^3) D0 ([3]; 25 mg/kg PO) | Average tumor volume (mm^3) D21 ([3]; 25 mg/kg PO, D21) | % T/C D21 ([3]; 25 mg/kg PO, D21, tumor regression formula) | IC50 [4] | IC50 (ALK kinase) | inhibition against CYP-3A4 (in words) (CYP-3A4) | IC50 (CYP-3A4) | AUC(0-inf) (in vivo) | Cmax (in vivo) | Tmax (in vivo) | half-life (in vivo) |
| --- | --- | --- | --- | --- | --- | --- | --- | --- | --- | --- | --- | --- | --- | --- | --- | --- | --- | --- | --- | --- |
| COc1cc(N2CCNC[C@@H]2C)ncc1-c1cnc(N)c(O[C@H](C)c2c(Cl)ccc(F)c2Cl)c1 [Example 27, 5-((R)-1-(2,6-dichloro-3-fluorophenyl)ethoxy)-4′-methoxy-6′-((S)-2-methylpiperazin-1-yl)-[3,3′-bipyridin]-6-amine] | 601 ng·h/mL | 69.7 ng/mL | 3.67 h | 327 min | 61.3 ± 7.9 nM | 134.3 mm^3 | 78% | 22% | 394.8 mm^3 | 131.0 mm^3 | 21.7 mm^3 | −83% | 35.1 ± 5.3 nM | 1.96 nM | no significant inhibition | > 10 µM |  |  |  |  |
| COc1cc(-c2cnc(N)c(O[C@H](C)c3c(Cl)ccc(F)c3Cl)c2)cnc1C1=CCNCC1 [Example 30, (R)-5-(1-(2,6-dichloro-3-fluorophenyl)ethoxy)-5′-methoxy-1″,2″,3″,6″-tetrahydro-[3,3′:6′,4″-terpyridin]-6-amine] |  |  |  |  |  |  |  |  |  |  |  |  |  |  | no significant inhibition | > 10 µM | 1270 ng·h/mL | 113 ng/mL | 3 h | 266 min |
| CCOc1cc(N2CCNC[C@@H]2C)ncc1-c1cnc(N)c(O[C@H](C)c2c(Cl)ccc(F)c2Cl)c1 [Example 53, 5-((R)-1-(2,6-dichloro-3-fluorophenyl)ethoxy)-4′-ethoxy-6′-((S)-2-methylpiperazin-1-yl)-[3,3′-bipyridin]-6-amine] | 830 ng·h/mL | 62.6 ng/mL | 3.33 h | 285 min |  |  |  |  |  |  |  |  |  |  |  |  |  |  |  |  |
